According to publication PMC10603992, “Antimicrobial and Adjuvant Potencies of Di-n-alkyl Substituted Diazalariat Ethers” (Antibiotics, 2023):
Converted amounts (≈) assume the structure as drawn. Like-named read-outs stand apart in the source and are kept apart here.

Experiments:
[1] = system: DH5α E. coli; assay: MIC against DH5α E. coli; assay type: cell-based; conditions: Escherichia coli, read-out: Minimum inhibitory concentration against DH5α E. coli
[2] = Turbidimetric solubility limit in MHII or PBS; assay type: physicochemical; conditions: DMSO ≤0.5%
[3] = system: K12 E. coli; assay: MIC against K12 E. coli; assay type: cell-based; conditions: MHII media, 90% growth inhibition, read-out: MIC K12 E. coli
[4] = system: Tet^R E. coli; assay: MIC against Tet^R E. coli; assay type: cell-based; conditions: Escherichia coli, read-out: MIC Tet^R E. coli
[5] = system: S. aureus 1199B; assay: MIC against S. aureus 1199B; assay type: cell-based, Staphylococcus aureus
[6] = system: S. aureus; assay: MIC against S. aureus under various pH and media conditions; assay type: cell-based, Staphylococcus aureus; conditions: for Change in MIC as the pH was increased from 6.4 to 8.4: S. aureus, Mueller Hinton medium
[7] = system: human embryonic kidney (HEK-293) cells; assay: Cytotoxicity against HEK-293 cells; assay type: cell-based; conditions: three independent trials
From the text: (§1) The potential toxicity of 1–6 is a critical factor in their application either as an antimicrobial or an adjuvant. In vitro toxicity studies were therefore conducted using human embryonic kidney (HEK-293) and simian kidney (COS-7) cells. The graphs shown in Figure 20 show the percentage survival of each cell type as a function of lariat ether concentration on the logarithmic x-axis. In each graph, the IC50 value is specified for each compound and cell type. The value of IC50 is the concentration of lariat ether that inhibits the growth of 50% of the cells studied.
(§2) The cytotoxicity experiments were conducted as described in [44].

[8] = system: simian kidney (COS-7) cells; assay: Cytotoxicity against COS-7 cells; assay type: cell-based; conditions: Chlorocebus aethiops, COS-7, percentage survival, three independent trials
From the text: as §1, §2

[9] = target: T1, NorA efflux pumps in S. aureus 1199B (Staphylococcus aureus, UniProt P0A0J7); assay: Efflux pump inhibition (EthBr accumulation); assay type: cell-based; conditions: 3 at […] µM vs reserpine at 50 µg/mL (80 µM)
T1 construct: Increase in EthBr fluorescence observed by its accumulation in S. aureus 1199B cytosol; endogenous in cells; host or cells: Staphylococcus aureus 1199B (whole bacteria)
T1 sequence (P0A0J7 whole entry): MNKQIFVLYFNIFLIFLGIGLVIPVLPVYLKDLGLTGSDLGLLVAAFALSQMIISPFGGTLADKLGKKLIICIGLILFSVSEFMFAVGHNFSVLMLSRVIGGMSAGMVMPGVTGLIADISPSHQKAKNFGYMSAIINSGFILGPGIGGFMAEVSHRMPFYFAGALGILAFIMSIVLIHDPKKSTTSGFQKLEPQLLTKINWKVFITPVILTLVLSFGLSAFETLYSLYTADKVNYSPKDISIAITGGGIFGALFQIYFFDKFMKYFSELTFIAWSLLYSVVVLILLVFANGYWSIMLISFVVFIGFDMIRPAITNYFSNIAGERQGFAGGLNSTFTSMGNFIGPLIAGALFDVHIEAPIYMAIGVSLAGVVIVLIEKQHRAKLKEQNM
From the text: An important reason for the choice of S. aureus 1199B for study is that its resistance to norfloxacin is known to result from the presence of the Nor A efflux pump. Efflux pumps require regulated ion balance to function so that exogeneous substances such as antibacterials can effectively be ejected. Ethidium bromide (EthBr) can penetrate bacteria and is detectable by its fluorescence. To the extent that ion homeostasis is disrupted, ion balance is deregulated, and efflux pump function is compromised or inhibited.
Experimental details have been reported in [44].

[10] = system: S. aureus; assay: Membrane depolarization by DiBAC4(3) fluorescence; assay type: cell-based, Staphylococcus aureus; conditions: compound at ½ MIC
Description: Disruption of ion homeostasis by 1–6 should be apparent in the associated membrane depolarization. […] The dye is readily absorbed by bacteria owing to the negative internal potential. Disruption of ion homeostasis will affect both proton and potassium cation regulation. The internalized, self-quenched dye will be released and increased fluorescence will be observed.
Two types of experiments were performed to assess membrane depolarization. […] If ion homeostasis is affected by the presence of any of these compounds, the fluorescent response should increase as the lariat ether concentration increased.
A second series of experiments was performed to determine the relationship of disrupted ion homeostasis, as reflected in membrane depolarization with cellular vitality (Figure 17). […] Alamar blue (see above) was used to determine cell viability. No depolarization was apparent in the S. aureus control in the absence of a lariat ether or lariat ether derivative. Depolarization was greatest for C10LE•MeI (3). […] We note that the MIC values for S. aureus observed for 2, 3, 5, and 6 were similar.
The membrane depolarization study was conducted as described in [48].

[11] = system: S. aureus (1199B); assay: Membrane permeability (propidium iodide / alamar blue); assay type: cell-based, Staphylococcus aureus; conditions: compound at ½ MIC
Description: Membrane permeability was assessed by using the dyes propidium iodide and alamar blue. […] However, when PI does enter a cell, it intercalates within the DNA structure. […] When intercalation occurs, a strong fluorescent emission can be detected. Alamar blue, based on resazurin, is a nontoxic weakly fluorescent dye that is sensitive to reduction potential within vital cells. When reduced, it is converted into highly fluorescent resorufin (7-hydroxy-3H-phenoxazin-3-one).
The combination of alamar blue and propidium iodide allowed us to assess the membrane permeability of S. aureus while confirming cellular vitality. Results of the PI/alamar blue studies with S. aureus are summarized in the graph of Figure 5. When S. aureus (1199B) was exposed to the two dyes, penetration of PI was relatively low and cellular vitality remained high. […] In general, cellular penetration and vitality correlated.
Membrane permeability studies were conducted as detailed in [48].

[12] = no reference given, cited from earlier work; for pKa of the carboxyl groups: general value
[13] = Dynamic light scattering of C12LE aggregation; assay type: physicochemical; conditions: water, in the presence of the antimicrobial or C12LE alone
Description: It is known that dialkyldiazacrowns form stable aggregates in aqueous solution [57, 62]. It was hypothesized that complexation between antimicrobials and macrocycles would alter or prevent the ability of the complex to form aggregates. […] Indeed, the particle sizes observed when chlortetracycline is present was almost indistinguishable from particle formation by C12LE (4) alone.
Measurements were performed on a Brookhaven Instruments Corp. ZetaPALS instrument at 25 °C using a 660 nm laser and correlating scattering at 90°. Samples were prepared by initially dissolving the amphiphile in filtered DMSO obtained from ThermoFisher. Next, they were diluted into 1× PBS such that DMSO was fixed at 0.5% in 15 mL sterile conical tubes. 10× PBS was obtained commercially, then diluted 10-fold in MQ H2O. The mixture was vortexed and incubated at room temperature for 2 h, then transferred to a clean quartz cuvette and equilibrated in the instrument for 10 min at 25 °C. Ten measurements consisting of 2 min runs were made on each sample. The average effective diameter was calculated with standard error reported for at least three trials.

[14] = system: S. aureus 1199B; assay: Checkerboard combination with norfloxacin; assay type: cell-based, Staphylococcus aureus
From the text: Each of the checkerboard analyses shown in Figure 7 combines one of 1–6 with norfloxacin. S. aureus 1199B is resistant to norfloxacin. By combining varying concentrations of both norfloxacin and a lariat ether or lariat ether derivative, potency enhancement, if any, can be determined. In the graphs (checkerboards) shown, the potency of each concentration combination can be assessed visually.
In both cases, the concentrations varied by a factor of two. Four controls were employed on each checkerboard plate: full growth (only cells), no growth (only media), and then a column for each drug alone to accurately reflect their individual MIC values. The concentrations of amphiphile and antibiotic tested were ½, ¼, ^1/8, ^1/16, and ^1/32 of the MIC. Preparation of the stock solutions and plates was by the same method described in the minimum inhibitory concentration section.

[15] = system: DH5α E. coli; set-up: method as in PMID 15858645; conditions: free bases, previously reported data; cited from earlier work
[16] = Staphylococcus aureus, MH + Ca2+, read-out: MIC S. aureus, MH + Ca^2+
[17] = Homo sapiens, HEK293, percentage survival

SMILES: CCCCCCCCCC[N+]1(C)CCOCCOCC[N+](C)(CCCCCCCCCC)CCOCCOCC1 (stereo not drawn) [C10LE•2MeI (3), N,N′-Di-n-decyl-4-13-diaza-18-crown-6 bis(methiodide)]
- MIC ([1]; no additional antimicrobial, MICs in table limited to […]): 24 µM
- solubility at 2 h ([2]; Mueller Hinton II broth, 37 °C, pH 7.3, plasma or biological fluid, kinetic from dmso stock, Mueller Hinton II, pH 7.3, 2 h at 37 °C, read-out: Solubility limit in MHII): 64 µM
- solubility at 2 h ([2]; phosphate-buffered saline, 37 °C, aqueous buffer, kinetic from dmso stock, phosphate-buffered saline, 2 h at 37 °C, read-out: Solubility limit in PBS): ≥ 128 µM
- MIC ([3]; Escherichia coli): 16 µM
- MIC [4]: 32 µM
- MIC ([5]; Staphylococcus aureus, 1199B, read-out: MIC S. aureus 1199B, MHII media, 90% growth inhibition): 1 to 2 µM
- Change in MIC as the pH was increased from 6.4 to 8.4 [6]: unchanged
- MIC [6, 16]: 16 µM
- MIC ([6]; Staphylococcus aureus, MH medium, read-out: MIC S. aureus, MH): 2 µM
- MIC ([6]; Staphylococcus aureus, pH 6.4, MHII, pH 6.4, read-out: MIC S. aureus, MHII pH 6.4): 2 µM
- MIC ([6]; Staphylococcus aureus, pH 7.4, MHII, pH 7.4, read-out: MIC S. aureus, MHII pH 7.4): 2 µM
- MIC ([6]; Staphylococcus aureus, pH 8.4, MHII, pH 8.4, read-out: MIC S. aureus, MHII pH 8.4): 2 µM
- IC50 [7, 17]: 36 µM
- IC50 [8]: 53 µM
- Potency as efflux pump inhibitor relative to reserpine [9]: approximately five times more potent
- Membrane depolarization (DiBAC4(3) fluorescence) [10]: greatest
- PI penetration (membrane permeability) [11]: good penetration

SMILES: CC1(C)S[C@@H]2[C@H](NC(=O)Cc3ccccc3)C(=O)N2[C@H]1C(=O)O [Penicillin G, penicillin G]
- pKa of the carboxyl groups [12]: 2.6–2.8

SMILES: CO/N=C(\C(=O)N[C@@H]1C(=O)N2C(C(=O)[O-])=C(C[N+]3(C)CCCC3)CS[C@H]12)c1csc(N)n1 [Cefepime, cefepime]
- Slope of C12LE aggregation (DLS particle size) [13]: 3.2

SMILES: CCCCN1CCOCCOCCN(CCCC)CCOCCOCC1 [di-n-butyl-diaza-18-crown-6]
- pK1 of macro ring nitrogen atoms [12]: 9.40
- pK2 of macro ring nitrogen atoms [12]: 7.97

SMILES: CC1(C)S[C@@H]2[C@H](NC(=O)[C@H](N)c3ccccc3)C(=O)N2[C@H]1C(=O)O [Ampicillin, ampicillin]
- pKa of the carboxyl groups [12]: 2.6–2.8

SMILES: CCCCCCCCCCN1CCOCCOCCN(CCCCCCCCCC)CCOCCOCC1 [C10LE (1), N,N′-Di-n-decyl-4-13-diaza-18-crown-6]
- MIC [1]: 11 µM (≈ 5.97 µg/mL)
- solubility at 2 h ([2]; Mueller Hinton II, pH 7.3, 2 h at 37 °C, read-out: Solubility limit in MHII): ≥128 µM
- solubility at 2 h ([2]; phosphate-buffered saline, 2 h at 37 °C, read-out: Solubility limit in PBS): ≥128 µM
- MIC [3]: 10 µM (≈ 5.43 µg/mL)
- MIC [4]: 8 µM (≈ 4.34 µg/mL)
- MIC S. aureus 1199B ([5]; MHII media, 90% growth inhibition): 8 µM (≈ 4.34 µg/mL)
- MIC ([6]; MH medium, read-out: MIC S. aureus, MH): 16 µM (≈ 8.69 µg/mL)
- MIC ([6]; MHII, pH 6.4, read-out: MIC S. aureus, MHII pH 6.4): 16 µM (≈ 8.69 µg/mL)
- MIC ([6]; MHII, pH 7.4, read-out: MIC S. aureus, MHII pH 7.4): ≥16 µM
- MIC ([6]; MHII, pH 8.4, read-out: MIC S. aureus, MHII pH 8.4): 32 µM (≈ 17.4 µg/mL)
- Change in MIC as the pH was increased from 6.4 to 8.4 [6]: changes in MIC were observed
- MIC [6, 16]: 16 µM
- Norfloxacin concentration required to effect 90% growth inhibition ([14]; lariat ether co-administered at 2 µM): 0.5 µM
- Fold increase in the potency of norfloxacin ([14]; norfloxacin-resistant S. aureus 1199B, checkerboard): 128 fold
- IC50 [7, 17]: 13 µM
- IC50 ([7]; percentage survival): ≤ 10 µM

SMILES: CCCCCCCCCCCN1CCOCCOCCN(CCCCCCCCCCC)CCOCCOCC1 [n-undecyl LE, N,N′-Di-n-undecyl-4,13-diaza-18-crown-6]
- Minimum inhibitory concentration against DH5α E. coli [15]: 20 µM (≈ 11.4 µg/mL)
